Our source for the IC50 values is paper PMC9610081, “Design and Synthesis of Aminopyrimidinyl Pyrazole Analogs as PLK1 Inhibitors Using Hybrid 3D-QSAR and Molecular Docking” (Pharmaceuticals, 2022).

SMILES strings stand for the structures.

This test addresses PLK1 (polo-like kinase 1) (Homo sapiens, UniProt P53350). Put plainly: radiometric […]-ATP kinase assay, casein substrate, […] ATP (Reaction Biology). Type of test: biochemical.

Chain of PLK1 (polo-like kinase 1) (P53350 2-603): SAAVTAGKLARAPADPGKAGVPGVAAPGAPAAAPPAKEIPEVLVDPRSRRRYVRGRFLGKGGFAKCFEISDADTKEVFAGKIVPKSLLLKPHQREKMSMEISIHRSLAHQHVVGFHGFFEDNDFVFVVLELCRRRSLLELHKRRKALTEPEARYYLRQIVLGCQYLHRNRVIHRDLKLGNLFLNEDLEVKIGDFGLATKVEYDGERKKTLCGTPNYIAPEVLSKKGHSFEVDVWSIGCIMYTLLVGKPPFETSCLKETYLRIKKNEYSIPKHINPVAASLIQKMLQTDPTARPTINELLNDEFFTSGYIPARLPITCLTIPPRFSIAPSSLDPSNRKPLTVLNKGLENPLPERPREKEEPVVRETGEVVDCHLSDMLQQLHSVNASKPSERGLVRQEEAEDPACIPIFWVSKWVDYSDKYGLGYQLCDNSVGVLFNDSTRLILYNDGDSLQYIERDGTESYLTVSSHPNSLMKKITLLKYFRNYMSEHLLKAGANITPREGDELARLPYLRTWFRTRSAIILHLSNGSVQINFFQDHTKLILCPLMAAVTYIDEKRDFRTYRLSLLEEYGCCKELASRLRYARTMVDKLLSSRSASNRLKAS

Take `CCOC(=O)c1nn(-c2ccnc(Nc3ccc4c(c3)N(C(=O)N(C)C)CC4)n2)cc1/C=C/c1ccccc1` [D39, Ethyl (E)-1-(2-((1-(dimethylcarbamoyl)indolin-6-yl)amino)pyrimidin-4-yl)-4-styryl-1H-pyrazole-3-carboxylate]: the IC50 worked out at 1430 nM.

Consider `CN(C)C(=O)N1CCc2ccc(Nc3nccc(-n4cc(/C=C/c5ccccc5)c(C(N)=O)n4)n3)cc21` [D40, (E)-6-((4-(3-carbamoyl-4-styryl-1H-pyrazol-1-yl)pyrimidin-2-yl)amino)-N,N-dimethylindoline-1-carboxamide], for which the IC50 turned out to be 359 nM.

In general, IC50 refers to the concentration that inhibits the measured activity by half.
